# Values quoted from earlier work as cited in patent publication US9630918B2, “Cysteine, N-acetylcysteine, and penicillamine related compounds, pharmaceutical compositions thereof, and methods of use” (priority 2015, dated 2017).
# What was measured:
# [1] = not given; remark: listed apart in the source
# [2] = system: stable COPD; conditions: patients with stable COPD, clinical study
oral bioavailability [1],SMILES,interpatient oral variability,exacerbation frequency [2],small airways function [2]
,"CC(C)(S)[C@@H](N)C(=O)O [D-penicillamine, D-Penicillamine]",high degree of interpatient oral variability,,
4-10%,"CC(=O)N[C@@H](CS)C(=O)O [NAC, N-Acetyl-L-cysteine]",,decrease exacerbation frequency,improve small airways function
